Consider seven molecules from patent US11718618B2, “Substituted pyrido[2,1-a]isoquinolines as VMAT2 inhibitors” (priority 2021, dated 2023).

The structures appear in SMILES notation. Like-named read-outs stand apart in the source and are kept apart here.

In general, Ki refers to the equilibrium dissociation constant of an inhibitor or competing ligand from its target.

One data set concerns the target human VMAT2 (Homo sapiens (Human), UniProt Q05940). Description: VMAT2 radioligand binding, 3H-dihydrotetrabenazine competition on human platelet homogenate. The gist of the method: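 Ki from scintillation counting of filter-bound ³H-dihydrotetrabenazine (10 nM) after 90 min, 25 °C incubation with twelve concentrations of compound. Membranes: human platelet homogenate, 30 μg protein per well; buffer DPBS, 1 mM EDTA, pH 7.4.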

Data set [1] is described as follows: Stability of compounds in human liver microsomes. It is filed as in vitro ADME. The conditions noted are these: for CLint scaled at 0.5 μM / half-life at 0.5 μM: both sexes, pH 7.4; for CLint scaled at 0.5 μM: liver microsomes, calculated from HLM half-life, read-out: HLM Scaled Intrinsic Clearance; for CLint scaled at 0.5 μM / Predicted Max. Bioavailability (% F) / HLM Predicted Systemic Clearance: human; for half-life at 0.5 μM: 0.5 μM compound, 0.5 mg/mL human liver microsomes, 37° C., maxed at 420 minutes, read-out: HLM Elimination half-life (t1/2, min); for Predicted Max. Bioavailability (% F): predicted from HLM data; for HLM Predicted Systemic Clearance: scaled from HLM half-life (Obach method). The procedure:
A test compound (0.5 μM) was incubated with pooled mixed gender liver microsomes from humans (0.5 mg/mL total protein) at 37° C. in the presence of an NADPH-generating system containing 50 mM, pH 7.4 potassium phosphate buffer, 3 mM magnesium chloride, 1 mM EDTA, 1 mM NADP, 5 mM glusose-6-phosphate, and 1 Unit/mL glucose-6-phosphate dehydrogenase. All concentrations were relative to the final incubation volume of 125 μL. Incubations were conducted at 37° C. for 0, 5, 10, 20, 40, and 60 minutes in a water bath and terminated by rapid mixing with 150 μL of ice-cold acetonitrile containing internal standard. Precipitated proteins were removed by centrifugation prior to LC-MS/MS analysis. Aliquots of the resulting supernatant fractions were analyzed by LC-MS/MS monitoring for depletion of parent compound. The resultant peak area ratio versus time data was fitted to a non-linear regression using XLfit Scientific Curve Fitting Software (IDBS Ltd., Surrey, UK) and the elimination half-life (t1/2, min) was calculated from the slope. […] Additional values calculated included predicted extraction ratio and predicted maximum bioavailability.

The mark [2] stands for this setting: 10 nM 3H-dihydrotetrabenazine, human platelet homogenate, 25° C., 90 minutes, read-out: VMAT2 Ki.

Sequence of human VMAT2 (Q05940 whole entry): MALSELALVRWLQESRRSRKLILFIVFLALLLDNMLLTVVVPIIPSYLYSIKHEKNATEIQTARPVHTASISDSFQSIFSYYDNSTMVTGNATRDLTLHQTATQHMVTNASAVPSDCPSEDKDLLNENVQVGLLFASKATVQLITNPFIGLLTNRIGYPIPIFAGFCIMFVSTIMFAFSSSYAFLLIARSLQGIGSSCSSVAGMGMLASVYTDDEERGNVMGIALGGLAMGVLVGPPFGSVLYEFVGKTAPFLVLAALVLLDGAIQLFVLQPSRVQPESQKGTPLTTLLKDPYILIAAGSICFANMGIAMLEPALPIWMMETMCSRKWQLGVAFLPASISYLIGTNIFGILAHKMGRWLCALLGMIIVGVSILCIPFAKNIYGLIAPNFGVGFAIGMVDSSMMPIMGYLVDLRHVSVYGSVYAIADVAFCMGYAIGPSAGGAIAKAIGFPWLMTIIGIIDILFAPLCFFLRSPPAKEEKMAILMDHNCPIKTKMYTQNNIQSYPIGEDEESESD

`COc1cc2c(cc1OCc1ccc(C#N)o1)CCN1C[C@@H](CC(C)(C)C)[C@H](O)C[C@H]21` [Compound 4-59, 5-({[(2R,3R,11bR)-3-(2,2-dimethylpropyl)-2-hydroxy-10-methoxy-1H,2H,3H,4H,6H,7H,11bH-pyrido[2,1-a]isoquinolin-9-yl]oxy}methyl)furan-2-carbonitrile]: the Ki on human VMAT2 (setting [2]) was 1.5 nM. In data set [1], the CLint scaled at 0.5 μM is 24.8 mL/min/kg, the half-life at 0.5 μM worked out at 50 min, the “Predicted Max. Bioavailability (% F)” value was 45 % F and the “HLM Predicted Systemic Clearance” value is 11.08 mL/min/kg.
Take `COc1cc2c(cc1OCCF)CCN1C[C@@H](CC(C)(C)C)[C@H](O)C[C@H]21` [Compound 4-18, (2R,3R,11bR)-3-(2,2-dimethylpropyl)-9-(2-fluoroethoxy)-10-methoxy-1H,2H,3H,4H,6H,7H,11bH-pyrido[2,1-a]isoquinolin-2-ol]: the Ki at human VMAT2 (setting [2]) worked out at 5.5 nM. In addition, in data set [1], the CLint scaled at 0.5 μM is 8.05 mL/min/kg, the half-life at 0.5 μM was 155 min, the “Predicted Max. Bioavailability (% F)” value is reported as 71 % F and the “HLM Predicted Systemic Clearance” value is 5.74 mL/min/kg.
The molecule `CC[C@@H](O)COc1cc2c(cc1OC)[C@H]1C[C@@H](O)[C@H](CC(C)(C)C)CN1CC2` [Compound 4-58, (2R,3R,11bR)-3-(2,2-dimethylpropyl)-9-[(2R)-2-hydroxybutoxy]-10-methoxy-1H,2H,3H,4H,6H,7H,11bH-pyrido[2,1-a]isoquinolin-2-ol] had a Ki on human VMAT2 of 1.1 nM. Further, in data set [1], the CLint scaled at 0.5 μM is 5.99 mL/min/kg, the half-life at 0.5 μM was found to be 208 min, the “Predicted Max. Bioavailability (% F)” value was 77 % F and the “HLM Predicted Systemic Clearance” value is 4.61 mL/min/kg.
For the molecule `COc1cc2c(cc1OCC(F)F)CCN1C[C@@H](CC(C)(C)C)[C@H](O)C[C@H]21` [Compound 4-13, (2R,3R,11bR)-9-(2,2-difluoroethoxy)-3-(2,2-dimethylpropyl)-10-methoxy-1H,2H,3H,4H,6H,7H,11bH-pyrido[2,1-a]isoquinolin-2-ol], the inhibition constant (Ki) on human VMAT2 (setting [2]) is 2.2 nM. In data set [1], the CLint scaled at 0.5 μM was at most 2.97 mL/min/kg, the half-life at 0.5 μM is at least 420 min, the “Predicted Max. Bioavailability (% F)” value is given as at least 87 % F and the “HLM Predicted Systemic Clearance” value was at most 2.59 mL/min/kg.
On to `COc1cc2c(cc1OCC1CC1)CCN1C[C@@H](CC(C)(C)C)[C@H](O)C[C@H]21` [Compound 4-88, (2R,3R,11bR)-9-(cyclopropylmethoxy)-3-(2,2-dimethylpropyl)-10-methoxy-1H,2H,3H,4H,6H,7H,11bH-pyrido[2,1-a]isoquinolin-2-ol], for which the Ki at human VMAT2 (setting [2]) is 0.68 nM. In addition, in data set [1], the CLint scaled at 0.5 μM is 28.1 mL/min/kg, the half-life at 0.5 μM stood at 44 min, the “Predicted Max. Bioavailability (% F)” value is recorded as 42 % F and the “HLM Predicted Systemic Clearance” value was 11.68 mL/min/kg.
`COc1cc2c(cc1OC)[C@H]1C[C@H](O)[C@H](CC(C)(C)C)CN1CC2` [Compound 5-2, (2S,3R,11bR)-3-(2,2-dimethylpropyl)-9,10-dimethoxy-1H,2H,3H,4H,6H,7H,11bH-pyrido[2,1-a]isoquinolin-2-ol]: the inhibition constant Ki at human VMAT2 (setting [2]) was determined as 50 nM. In data set [1], the CLint scaled at 0.5 μM is 32.6 mL/min/kg, the half-life at 0.5 μM was found to be 38 min, the “Predicted Max. Bioavailability (% F)” value is listed as 38 % F and the “HLM Predicted Systemic Clearance” value is 12.39 mL/min/kg.
Turning to `COc1cc2c(cc1OCCC1(C#N)CC1)CCN1C[C@@H](CC(C)(C)C)[C@H](O)C[C@H]21` [Compound 4-45, 1-(2-{[(2R,3R,11bR)-3-(2,2-dimethylpropyl)-2-hydroxy-10-methoxy-1H,2H,3H,4H,6H,7H,11bH-pyrido[2,1-a]isoquinolin-9-yl]oxy}ethyl)cyclopropane-1-carbonitrile], the inhibitory constant (Ki) on human VMAT2 (setting [2]) was determined as 7.3 nM. For the same molecule, in data set [1], the CLint scaled at 0.5 μM was 9.7 mL/min/kg, the half-life at 0.5 μM was 129 min, the “Predicted Max. Bioavailability (% F)” value is 67 % F and the “HLM Predicted Systemic Clearance” value was 6.53 mL/min/kg.
